# Read-outs that look alike come from different tables or passages of the source.
# Tests used:
# FAAH [1] = settings: cited from earlier work
# FAAH [2] = target: T1, FAAH (Rattus norvegicus, UniProt P97612); settings: shown for comparative purposes, cited from earlier work; for IC50: rat brain, read-out: IC50 for inhibition of rat brain AEA hydrolysis
# T1 construct: rat or mouse brain homogenates as the enzyme source; from tissue; host or cells: rat brain (minus cerebellum), Wistar or Sprague-Dawley, washed membrane homogenate
# T1 sequence (P97612 1-579): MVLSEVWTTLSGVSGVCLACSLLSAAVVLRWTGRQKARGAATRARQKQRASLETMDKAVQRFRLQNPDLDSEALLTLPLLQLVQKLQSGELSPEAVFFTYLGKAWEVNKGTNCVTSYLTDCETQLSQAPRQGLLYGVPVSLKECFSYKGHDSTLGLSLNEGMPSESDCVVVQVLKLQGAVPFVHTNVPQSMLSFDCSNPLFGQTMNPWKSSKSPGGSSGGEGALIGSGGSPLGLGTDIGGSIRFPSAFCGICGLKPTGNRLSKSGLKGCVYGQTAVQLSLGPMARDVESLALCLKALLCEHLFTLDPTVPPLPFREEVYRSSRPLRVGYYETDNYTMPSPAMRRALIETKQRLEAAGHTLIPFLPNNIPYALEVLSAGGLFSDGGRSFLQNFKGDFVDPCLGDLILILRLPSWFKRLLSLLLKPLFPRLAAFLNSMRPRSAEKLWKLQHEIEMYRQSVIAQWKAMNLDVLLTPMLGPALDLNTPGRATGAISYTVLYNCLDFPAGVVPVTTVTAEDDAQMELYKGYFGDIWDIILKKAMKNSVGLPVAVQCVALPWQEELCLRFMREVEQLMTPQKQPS
# FAAH [3] = target: T1, FAAH; test: FAAH assay: [3H]AEA hydrolysis by rat brain homogenates; format: biochemical; settings: for IC50: 0.5 µM [3H]AEA, rat brain homogenates; for increase in FAAH inhibitory activity versus Flu-AM1: IC50 compared with Flu-AM1; for FAAH potency versus flurbiprofen: IC50 compared with flurbiprofen
# iNOS = iNOS expression in the spinal cord of CCI-mice; format: in vivo; settings: 10 mg/kg ip, 1 h before
# FAAH [4] = target: T2, FAAH (Mus musculus, UniProt O08914); test: FAAH assay: [3H]AEA hydrolysis by mouse brain homogenates; format: biochemical; settings: 0.5 µM [3H]AEA
# T2 construct: rat or mouse brain homogenates as the enzyme source; from tissue; host or cells: mouse brain (minus cerebellum), male B6CBAF1/J, washed membrane homogenate
# T2 sequence (O08914 1-579): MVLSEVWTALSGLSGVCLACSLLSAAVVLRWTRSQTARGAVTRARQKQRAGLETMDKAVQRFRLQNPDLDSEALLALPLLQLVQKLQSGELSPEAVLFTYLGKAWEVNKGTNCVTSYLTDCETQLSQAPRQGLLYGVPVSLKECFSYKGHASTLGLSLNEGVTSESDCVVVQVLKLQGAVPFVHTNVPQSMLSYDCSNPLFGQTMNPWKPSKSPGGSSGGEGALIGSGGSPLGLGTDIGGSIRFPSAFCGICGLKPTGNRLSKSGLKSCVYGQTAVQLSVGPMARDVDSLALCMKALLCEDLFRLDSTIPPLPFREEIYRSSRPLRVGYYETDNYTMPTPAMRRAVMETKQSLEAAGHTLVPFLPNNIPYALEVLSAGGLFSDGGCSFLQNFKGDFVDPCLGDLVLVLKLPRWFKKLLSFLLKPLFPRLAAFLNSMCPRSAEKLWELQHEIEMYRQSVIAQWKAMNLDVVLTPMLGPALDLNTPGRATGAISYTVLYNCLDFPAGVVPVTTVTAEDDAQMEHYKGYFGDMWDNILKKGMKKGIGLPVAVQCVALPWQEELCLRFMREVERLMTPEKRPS
# CD1 male mice [5] = test: CCI neuropathic pain model, mechanical hyperalgesia (Randall-Selitto test); format: in vivo; settings: 1 h before test, day 7 and 14
# Method: (§1) The behavioural experiments were performed on CD1 male mice (25–30 g Charles Rivers-Italy). They were housed in the animal care facility of the Department Experimental of Pharmacology, University of Naples. The animals were acclimated to their environment for 1 week and had ad libitum access to standard rodent chow pellets VRF1 (purchased from Special Diet Service-SDS). All behavioural tests were performed between 9:00 AM and 13:00 PM, and the animals were only used once. Procedures involving animals and their care were conducted in conformity with international and national law and policies (EU Directive 2010/63/EU for animal experiments). The procedures reported here were approved by the Institutional Committee on the Ethics of Animal Experiments (CSV) of the University of Naples “Federico II” and by the “Ministero della Salute”, protocol no. 2014–0084607. At the end of all experiments for all pain models, the animals were euthanized by CO2 overdose.
# (§2) During this study, Flu-AM4 was administered systemically (intraperitoneally) and locally (intraplantar 100 microg/paw). For systemic administration, the compound was dissolved in PEG400 20% v/v, TWEEN 80 5% (v/v) and sterile saline and used at different doses (1–3–10 mg/kg). Vehicle group was only treated with PEG, TWEEN and sterile saline. For intraplantar administration Flu-AM4 was dissolved in PEG400 10% v/v, TWEEN 80 5% (v/v) and formalin 5% in sterile saline.
# Paw withdrawal threshold (PWT) to mechanical pressure was measured with a Randall-Selitto Analgesy-Meter for mice (Ugo Basile, Italy). PWT was measured on the ispsilateral paw at 1, 2, 4, 6 and 48 h post carrageenan injection. Each paw was tested twice per session. Cut-off force was set at 100 g.
# (§3) Neuropathic pain was induced by ligation of the sciatic nerve as described previously. […] At day 7 and 14 Mechanical Allodynia (von Frey test) and Mechanical hyperalgesia (Randall-Selitto test) were assessed. […]
# COX-2 = COX-2 expression in the spinal cord of CCI-mice; format: in vivo; settings: 10 mg/kg ip, 1 h before
# CD1 male mice [6] = test: Carrageenan-induced paw oedema; format: in vivo; settings: 10 mg/kg ip, 5 min after carrageenan; p < 0.05
# Method: The behavioural experiments were performed on CD1 male mice (25–30 g Charles Rivers-Italy). They were housed in the animal care facility of the Department Experimental of Pharmacology, University of Naples. The animals were acclimated to their environment for 1 week and had ad libitum access to standard rodent chow pellets VRF1 (purchased from Special Diet Service-SDS). All behavioural tests were performed between 9:00 AM and 13:00 PM, and the animals were only used once. Procedures involving animals and their care were conducted in conformity with international and national law and policies (EU Directive 2010/63/EU for animal experiments). The procedures reported here were approved by the Institutional Committee on the Ethics of Animal Experiments (CSV) of the University of Naples “Federico II” and by the “Ministero della Salute”, protocol no. 2014–0084607. […]
# Paw edoema was induced by a subplantar injection of 0.1 ml of sterile saline containing 1% λ-carrageenan (Sigma Aldrich) into the right hind paw. Paw volumes were measured by a plethysmometer (Ugo Basile, Italy) at different times after the paw injection. The increase in paw volume was evaluated as the difference between the paw volume measured (Vm) at each time point (1, 2, 4, 6 and 48 h post carrageenan) and the basal paw volume (Vb) measured immediately before carrageenan injection (Δ volume = Vm – Vb).
# NFκB-p65 = test: NF-κB-p65 expression in the spinal cord of CCI-mice; format: in vivo; settings: 10 mg/kg ip, 1 h before
# ovine COX-1 = test system: T3, ovine COX-1; test: COX-1 inhibition, oxygen electrode assay; format: biochemical; settings: 10 µM compound, 10 µM arachidonic acid
# T3 construct: purchased Cayman Chemical Co. 60100
# Method: (§4) The assay was performed according to Meade et al.[58] with minor modifications. An oxygen electrode chamber with integral stirring (Oxygraph System, Hansatech Instruments, King’s Lynn, U.K.) was calibrated daily to ambient temperature and air pressure. The assay buffer contained 100 mM Tris-HCl buffer pH 7.4, 1 µM haematin, 2 mM phenol, 5 mM EDTA, 10 µM substrate (arachidonic acid or 2-AG) (final assay volume was 2 ml). After addition of Flu-AM4 dissolved in ethanol (final assay concentration 1%), a baseline was established for 5 min before initiation of reaction by addition of 200 units of either ovine COX-1 or human recombinant COX-2. The change in oxygen consumption as a measurement of enzyme activity was monitored for approximately 5 min.
# CD1 male mice [7] = test: CCI neuropathic pain model, mechanical allodynia (von Frey test); format: in vivo; settings: 1 h before test, day 7 and 14
# Method: as §1, §2, §3
# To assess for changes in sensation or in the development of mechanical allodynia, sensitivity to tactile stimulation was measured using the Dynamic Plantar Aesthesiometer (DPA, Ugo Basile, Italy). […]
# human recombinant COX-2 = test system: T4, human recombinant COX-2; test: COX-2 inhibition, oxygen electrode assay; format: biochemical; settings: 10 µM compound, 10 µM 2-AG
# T4 construct: purchased Cayman Chemical Co. 60122
# Method: as §4, with “[…].)” for “King’s Lynn, U.K.)”, “μM” for “µM”
# CD1 male mice [8] = test: Formalin-evoked hind-paw licking; format: in vivo; settings: phase I and II
# Method: as §1
# (§5) During this study, Flu-AM4 was administered systemically (intraperitoneally) and locally (intraplantar 100 microg/paw). […]
# Mice received intraplantar injections of formalin in saline (10%,vol/vol; 10 µl/paw). Paw licking was monitored by an observer blind to the experimental treatment for periods of 0–15 min (early phase) and 15–60 min (late phase) immediately after formalin administration. […]
# CD1 male mice [9] = test: Carrageenan-induced mechanical hyperalgesia (Randall-Selitto); format: in vivo; settings: 10 mg/kg ip, 5 min after carrageenan
# Method: as §1, §5
# Paw withdrawal threshold (PWT) to mechanical pressure was measured with a Randall-Selitto Analgesy-Meter for mice (Ugo Basile, Italy). PWT was measured on the ispsilateral paw at 1, 2, 4, 6 and 48 h post carrageenan injection. […]
# [10] = derived from pI50, read-out: IC50 for inhibition of rat brain AEA hydrolysis
# [11] = means ± s.e.m., n = 3–4, read-out: pI50 (-logIC50) for inhibition of rat brain AEA hydrolysis (converted)
smiles,measurement,setting,value
Cc1cccnc1NC(=O)C(C)c1ccc(-c2ccccc2)c(F)c1 (stereo not shown) [Flu-AM1],potency against FAAH versus flurbiprofen,FAAH [1],about 60 fold
same,IC50,FAAH [2],440 nM
same,pI50 (-logIC50) for inhibition of rat brain AEA hydrolysis,FAAH [2],6.36 ± 0.02
"CC(C(=O)Nc1ncccc1C(F)(F)F)c1ccc(-c2ccccc2)c(F)c1 (stereo not shown) [Flu-AM3, 2–(2-Fluoro-(1,1'-biphenyl)-4-yl)-N-(3-(trifluoromethyl)pyridin-2-yl)propanamide]",IC50,FAAH [3]; [10],110 nM
same,IC50,FAAH [3]; [11],110 nM
same,increase in FAAH inhibitory activity versus Flu-AM1,FAAH [3]; rat brain,about 4 fold
"CC(C(=O)Nc1ncccc1Br)c1ccc(-c2ccccc2)c(F)c1 (stereo not shown) [Flu-AM4, N-(3-Bromopyridin-2-yl)-2-(2-fluoro-(1,1'-biphenyl)-4-yl)propanamide]",iNOS expression in the spinal cord,iNOS,significantly reduced this expression
same,IC50,FAAH [4],430 nM
same,CCI-induced mechanical hyperalgesia (Randall-Selitto),CD1 male mice [5]; 1 mg/kg ip,did not show any effect
same,CCI-induced mechanical hyperalgesia (Randall-Selitto),CD1 male mice [5]; 3 mg/kg ip,showed efficacy only at the 14-day time point in both tests
same,CCI-induced mechanical hyperalgesia (Randall-Selitto),CD1 male mice [5]; 10 mg/kg ip,increased paw withdrawal latency in both test and in all experimental time
same,COX-2 expression in the spinal cord,COX-2,significantly reduced this expression
same,carrageenan-induced paw oedema,CD1 male mice [6],reduced paw oedema at 2 and 4 h
same,NFκB-p65 expression in the spinal cord,NFκB-p65,significantly reduced this expression
same,inhibition of cyclooxygenation of AA by COX-1,ovine COX-1,only partially inhibiting
same,CCI-induced mechanical allodynia (Von Frey),CD1 male mice [7]; 1 mg/kg ip,did not show any effect
same,CCI-induced mechanical allodynia (Von Frey),CD1 male mice [7]; 3 mg/kg ip,showed efficacy only at the 14-day time point in both tests
same,CCI-induced mechanical allodynia (Von Frey),CD1 male mice [7]; 10 mg/kg ip,increased paw withdrawal latency in both test and in all experimental time
same,IC50,FAAH [3]; [10],21 nM
same,IC50,FAAH [3]; [11],21.4 nM
same,Ki,"FAAH [3]; rat brain [3H]AEA hydrolysis, competitive model",13 nM
same,increase in FAAH inhibitory activity versus Flu-AM1,FAAH [3]; rat brain,approximately 20 fold
same,FAAH potency versus flurbiprofen,FAAH [3]; rat brain,more than three orders of magnitude greater than flurbiprofen
same,mode of FAAH inhibition (kinetics),"FAAH [3]; rat brain, best fit by Akaike's criteria",competitive inhibition
same,reversibility of FAAH inhibition,"FAAH [3]; rat brain, preincubation and 20-fold dilution experiments",reversible inhibitor
same,potency towards rat brain FAAH versus mouse brain FAAH,FAAH [3]; rat vs mouse brain,an order of magnitude more potent towards rat brain FAAH than mouse brain FAAH
same,inhibition of cyclooxygenation of 2-AG by COX-2,human recombinant COX-2,completely inhibited
same,"formalin-induced paw licking, local application","CD1 male mice [8]; 100 µg intraplantar, co-administered with formalin 5%, p < 0.001",reduced the paw licking time in both phases
same,"formalin-induced paw licking, systemic administration","CD1 male mice [8]; 10 mg/kg ip, 1 h before formalin, p < 0.001 vs vehicle",reduce the behavioural responses in both phases
same,carrageenan-induced paw hyperalgesia,CD1 male mice [9],reduce hyperalgesia seen 2 h after carrageenan
"CC(C(=O)Nc1ncccc1Cl)c1ccc(-c2ccccc2)c(F)c1 (stereo not shown) [Flu-AM6, N-(3-Chloropyridin-2-yl)-2-(2-fluoro-(1,1'-biphenyl)-4-yl)propanamide]",IC50,FAAH [3]; [10],19 nM
same,IC50,FAAH [3]; [11],19.1 nM
same,increase in FAAH inhibitory activity versus Flu-AM1,FAAH [3]; rat brain,approximately 20 fold
same,FAAH potency versus flurbiprofen,FAAH [3]; rat brain,more than three orders of magnitude greater than flurbiprofen
CC(C(=O)O)c1ccc(-c2ccccc2)c(F)c1 (stereo not shown) [Flurbiprofen],IC50,FAAH [2],29000 nM
same,pI50 (-logIC50) for inhibition of rat brain AEA hydrolysis,FAAH [2],4.53 ± 0.02
Cc1cccnc1NC(=O)C(C)c1ccc(CC(C)C)cc1 (stereo not shown) [Ibu-AM5],potency against FAAH versus ibuprofen,FAAH [1],2-3 orders of magnitude
